Results reported in publication PMC4865888 (Cell chemical biology, 2016).

Columns and labels:
DENV2 NGC [1] = test: time-of-addition experiments, BHK21 cells, viral plaque assay; type: cell-based, dengue virus; conditions: 15 μM, BHK21, MOI 1, yield at 24 hpi
DENV2 NGC [2] = test: low MOI multiple replication cycle infection experiment; type: cell-based, dengue virus; conditions: MOI 0.01, treatment delayed until 24 hpi; GNF-2 15 μM, 8b 5 μM; titers at 48, 72 hpi
[3] = molecular target: recombinant, soluble DENV2 E protein (sE), prefusion (Dengue virus type 2, UniProt P14340); test: Alphascreen assay, GNF2-biotin and prefusion sE; conditions: increasing concentrations, 20 nM to 10 μM
DENV2 NGC [4] = conditions: dose-response, inhibitor present during entire single round, MOI 1, 24 hpi

## NC(=O)c1cccc(-c2cc(Nc3ccc(OC(F)(F)F)cc3)ncn2)c1 [GNF-2]
DENV2 NGC [1]
  antiviral effect when added post-infection (POST, 0-5 hours): inhibit DENV2
  antiviral effect when pre-incubated with viral inoculum (PRE virus): additional antiviral activity
DENV2 NGC [2]
  inhibition of DENV2 over multiple replication cycles: inhibit DENV2
[3]
  competition with GNF2-biotin for prefusion sE (Alphascreen signal): decrease the Alphascreen signal
DENV2 NGC [4]
  antiviral activity in single-cycle virus yield reduction assay: more antiviral activity than imatinib
